The target in assay [1] is T1, STK10 (Homo sapiens, UniProt O94804). Put plainly: TR-FRET binding displacement assay. A general note: Time-resolved FRET reads energy transfer from a long-lived donor to a nearby acceptor.
Assay [2] concerns the target T2, GAK (Homo sapiens, UniProt O14976).
T2 sequence (O14976 12-347 limits assumed): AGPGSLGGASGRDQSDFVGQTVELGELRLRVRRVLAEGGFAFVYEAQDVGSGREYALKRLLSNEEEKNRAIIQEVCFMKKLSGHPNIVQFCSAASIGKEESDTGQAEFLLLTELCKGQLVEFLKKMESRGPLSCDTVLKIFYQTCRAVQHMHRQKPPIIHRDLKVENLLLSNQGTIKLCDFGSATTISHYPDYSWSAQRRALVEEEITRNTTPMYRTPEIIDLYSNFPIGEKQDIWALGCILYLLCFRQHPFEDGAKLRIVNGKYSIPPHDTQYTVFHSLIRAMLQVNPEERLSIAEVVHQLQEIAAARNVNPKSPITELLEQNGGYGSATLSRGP
Put plainly: TR-FRET binding displacement assay.

Assay [3] addresses T3, SLK (Homo sapiens, UniProt Q9H2G2). Put plainly: TR-FRET binding displacement assay.
In assay [4] the target is T4, full length GAK protein N-terminally fused with NanoLuc luciferase (Homo sapiens, UniProt O14976).
T4 sequence (O14976 2-1311): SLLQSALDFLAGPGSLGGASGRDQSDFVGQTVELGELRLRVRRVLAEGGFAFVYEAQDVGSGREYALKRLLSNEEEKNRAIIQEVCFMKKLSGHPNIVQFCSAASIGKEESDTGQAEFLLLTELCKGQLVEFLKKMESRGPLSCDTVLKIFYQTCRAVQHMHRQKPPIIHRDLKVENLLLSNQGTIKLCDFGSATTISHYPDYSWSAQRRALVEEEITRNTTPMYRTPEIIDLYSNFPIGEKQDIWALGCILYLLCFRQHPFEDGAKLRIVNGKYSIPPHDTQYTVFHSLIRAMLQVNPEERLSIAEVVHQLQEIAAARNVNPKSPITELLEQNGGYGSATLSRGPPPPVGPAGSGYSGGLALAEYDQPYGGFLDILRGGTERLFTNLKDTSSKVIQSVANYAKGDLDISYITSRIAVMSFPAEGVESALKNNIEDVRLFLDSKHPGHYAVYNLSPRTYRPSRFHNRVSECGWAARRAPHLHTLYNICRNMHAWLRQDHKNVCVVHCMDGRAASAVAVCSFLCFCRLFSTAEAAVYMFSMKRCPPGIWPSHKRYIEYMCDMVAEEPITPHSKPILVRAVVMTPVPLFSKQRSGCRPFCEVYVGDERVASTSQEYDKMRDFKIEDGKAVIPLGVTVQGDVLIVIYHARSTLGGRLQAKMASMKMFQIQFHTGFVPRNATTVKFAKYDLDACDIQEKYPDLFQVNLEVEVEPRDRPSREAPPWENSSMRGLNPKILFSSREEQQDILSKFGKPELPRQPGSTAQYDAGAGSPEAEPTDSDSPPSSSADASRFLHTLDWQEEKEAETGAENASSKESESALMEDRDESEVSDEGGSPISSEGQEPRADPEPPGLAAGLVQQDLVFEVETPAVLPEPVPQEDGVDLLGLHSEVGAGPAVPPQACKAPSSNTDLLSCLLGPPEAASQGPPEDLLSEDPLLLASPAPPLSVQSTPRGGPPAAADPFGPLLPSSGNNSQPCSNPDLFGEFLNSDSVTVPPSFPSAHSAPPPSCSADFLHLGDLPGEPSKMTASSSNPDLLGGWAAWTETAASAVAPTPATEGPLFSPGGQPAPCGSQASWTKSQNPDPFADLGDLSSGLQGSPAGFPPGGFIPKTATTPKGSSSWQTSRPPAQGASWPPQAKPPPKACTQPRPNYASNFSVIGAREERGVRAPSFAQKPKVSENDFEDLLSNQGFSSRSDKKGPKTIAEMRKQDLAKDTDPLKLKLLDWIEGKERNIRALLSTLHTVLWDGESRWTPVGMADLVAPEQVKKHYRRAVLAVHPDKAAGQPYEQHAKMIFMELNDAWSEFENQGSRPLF
Put plainly: nanoBRET cellular target engagement. The format is cell-based. (In general: BRET reads energy transfer from a luciferase to a nearby fluorophore.)

Assay [5] concerns the target T4, full length GAK protein N-terminally fused with NanoLuc luciferase. The assay is described as follows: cell-based. Also noted: species or system HEK293T.
The target in assay [6] is T3, SLK. Put plainly: biochemical.
Assay [7] concerns the target T4, full length GAK protein N-terminally fused with NanoLuc luciferase. The assay is described as follows: cell-based. More on the design: species or system HEK293T. The source holds these as a separate data set.
Assay [8] concerns the target T1, STK10. The assay is described as follows: biochemical.
[9] abbreviates: ATP site tracer displacement, 16-point dose response.
Where [10] appears, read: HEK293T cells, tracer displacement, n=[…] mean.

Like-named read-outs stand apart in the source and are kept apart here.

T3 sequence (Q9H2G2 34-292): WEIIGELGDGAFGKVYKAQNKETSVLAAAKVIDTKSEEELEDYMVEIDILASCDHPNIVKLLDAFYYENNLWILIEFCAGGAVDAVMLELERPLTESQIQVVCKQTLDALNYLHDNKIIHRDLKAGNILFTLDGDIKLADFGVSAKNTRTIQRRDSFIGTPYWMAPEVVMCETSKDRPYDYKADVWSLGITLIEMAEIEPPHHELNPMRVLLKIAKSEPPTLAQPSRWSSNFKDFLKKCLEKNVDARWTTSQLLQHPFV
T1 sequence (O94804 36-294 limits assumed): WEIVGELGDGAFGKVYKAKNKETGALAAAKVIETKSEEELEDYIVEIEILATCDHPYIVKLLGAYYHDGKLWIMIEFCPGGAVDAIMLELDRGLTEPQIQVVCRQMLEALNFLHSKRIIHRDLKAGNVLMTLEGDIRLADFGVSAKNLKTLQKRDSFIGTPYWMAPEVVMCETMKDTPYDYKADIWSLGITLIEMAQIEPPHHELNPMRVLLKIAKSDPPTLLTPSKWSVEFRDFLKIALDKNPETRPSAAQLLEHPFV

The Ki is the dissociation constant of the complex between target and ligand, obtained from inhibition or displacement. Low values mean higher affinity, high ones lower affinity. For orientation: IC50 means the concentration needed to halve the response being measured. Low values mean inhibition by little substance, high ones a need for much substance. With `COc1ccc2nccc(Nc3cc(OC)c(OC)c(OC)c3)c2c1` [compound 14, 14], the values for the Ki in assay [1], in assay [2] (setting [9]) and in assay [3] were 12000 nM, 13 nM and > 55000 nM, respectively. The compound further had an IC50 in assay [4] of 360 nM.

`COc1cc(Nc2ncnc3cc(C(F)(F)F)ccc23)cc(OC)c1OC` [compound 35, 35]: the IC50 in assay [5] is > 5000 nM. On the same count and under the same terms, next, `COc1cc(Nc2ncnc3ccc(C)cc23)cc(OC)c1OC` [compound 24, 24]: 2100 nM. In the case of `C#Cc1cccc(Nc2ncnc3cc(Cl)ccc23)c1` [compound 63, 63], the Ki in assay [6] turned out to be 360 nM; in assay [8], 440 nM. Also, in assay [7], the IC50 was > 5000 nM. For the compound `COc1cc(Nc2ccnc3ccc(I)cc23)cc(OC)c1OC` [compound 11, 11], the figures for the Ki in assay [1], in assay [2] and in assay [3] were 24300 nM, 3.8 nM and 5800 nM, respectively. This compound also returned an IC50 in assay [4] of 110 nM. Turning to `COc1cc(Nc2ncnc3ccc(C#N)cc23)cc(OC)c1OC` [compound 37, 37], in assay [5], the IC50 was > 5000 nM. With `COc1ccc2ncnc(Nc3cc(OC)c(OC)c(OC)c3)c2c1` [compound 39, 39], the midpoint of inhibition in assay [5], the IC50, lay at 3400 nM. The same measure, in the same setting: then `COc1cc(Nc2ncnc3cc(Br)ccc23)cc(OC)c1OC` [compound 33, 33], with 4200 nM.

With `C#Cc1cccc(Nc2ccnc3cc(OCCOC)c(OCCOC)cc23)c1` [compound 1, erlotinib quinoline], the Ki came out at 720 nM in assay [1], 100 nM in assay [2] and 1200 nM in assay [3]. In assay [4] (setting [10]), this compound showed an IC50 of 4200 nM.

The compound `C#Cc1cccc(Nc2ncnc3cc(OC)c(OC)cc23)c1` [compound 71] showed an IC50 in assay [7] of 79 nM. `COc1cc(Nc2ccnc3ccc(C(F)(F)F)cc23)cc(OC)c1OC` [compound 12, 12]: the Ki came out at 4600 nM in assay [1] and 33000 nM in assay [3]. As for `COc1cc(Nc2ccnc3ccc(F)cc23)cc(OC)c1OC` [compound 8, 8], the results for the Ki in assay [1] and in assay [3] were 45900 nM and 5100 nM, respectively. For `COc1cc(Nc2ncnc3ccc(I)cc23)cc(OC)c1OC` [compound 29, 29], in assay [5], half-maximal inhibition (IC50) was put at 890 nM. In other words, the sub-micromolar range. On to `CCOc1cc2ncc(C#N)c(Nc3ccc(F)c(Cl)c3)c2cc1NC(=O)/C=C/CN(C)C` [Pelitinib], for which the affinity in assay [3], expressed as Ki, was 280 nM. In assay [4], this compound had an IC50 of 12 nM.

On to `COc1cc(Nc2ccnc3cc(F)ccc23)cc(OC)c1OC` [compound 16, 16], for which the figures for the inhibitory constant (Ki) in assay [1] and in assay [3] were 1600 nM and 17000 nM, respectively. In the case of `CCOc1cc2ncc(C#N)c(Nc3ccc(OCc4ccccn4)c(Cl)c3)c2cc1NC(=O)/C=C/CN(C)C` [Neratinib], in assay [2], the Ki is 290 nM. In assay [4], this compound returned an IC50 of 2300 nM.

For `COc1cc(Nc2ccnc3cc(F)c(F)cc23)cc(OC)c1OC` [compound 9, 6,7-difluoro-N-(3,4,5-trimethoxyphenyl)quinolin-4-amine], the inhibitory constant (Ki) in assay [1] turned out to be 2700 nM; in assay [2], 6.9 nM; in assay [3], 26000 nM. For the same compound, in assay [4], the IC50 came out at 140 nM. For the compound `COc1cc2nccc(Nc3cc(OC)c(OC)c(OC)c3)c2cc1OC` [compound 3, 3], the Ki in assay [1] stood at 1100 nM; in assay [3], 7100 nM. In assay [4], the midpoint of inhibition, the IC50, lay at 26 nM.

`COc1cc(Nc2ncnc3ccccc23)cc(OC)c1OC` [compound 23, 23] yielded an IC50 in assay [5] of 4600 nM. With `COc1cc(Nc2ccnc3cc(Cl)ccc23)cc(OC)c1OC` [compound 17, 17], the Ki in assay [1] was determined as 210 nM; in assay [2], 1.3 nM; in assay [3], 2100 nM. This compound yielded a concentration for half-maximal inhibition (IC50) in assay [4] of 250 nM.

As to `COc1cc(Nc2ccnc3cc(C(F)(F)F)ccc23)cc(OC)c1OC` [compound 20, 20], the Ki in assay [1] worked out at 370 nM; in assay [2] (setting [9]), 6.2 nM; in assay [3], 3200 nM. The IC50 in assay [4] (setting [10]) was 520 nM.

`COc1cc2ncnc(Nc3ccc(F)c(Cl)c3)c2cc1OCCCN1CCOCC1` [Gefitinib] showed a Ki in assay [1] of 340 nM. As for `C#Cc1cccc(Nc2ncnc3cc(OC)c(OC)cc23)c1` [compound 71, 71], the Ki in assay [1] came out at 120 nM; in assay [2] it was 1 nM; in assay [3], 140 nM.

With `C#Cc1cccc(Nc2c(C#N)cnc3cc(OC)c(OC)cc23)c1` [compound 82, 82], in assay [2] (setting [9]), the affinity, expressed as Ki, was 0.32 nM. In assay [4] (HEK293T cells, tracer displacement), this compound gave an IC50 of 40 nM.

For `COc1cc(Nc2ccnc3ccc(Br)cc23)cc(OC)c1OC` [compound 2, SGC-GAK-1], the Ki in assay [1] is 4600 nM; in assay [3], 34000 nM. `COc1cc(Nc2ncnc3ccc(C(F)(F)F)cc23)cc(OC)c1OC` [compound 30, 30] showed an IC50 in assay [5] of 4500 nM. Compound `COc1cc(Nc2ncnc3ccc(Cl)cc23)cc(OC)c1OC` [compound 27, 27] gave a concentration for half-maximal inhibition (IC50) in assay [5] of 2400 nM.

Consider `COc1cc(Nc2ccnc3ccc(S(C)(=O)=O)cc23)cc(OC)c1OC` [compound 15, 15], for which the Ki is 2400 nM in assay [1] and 23000 nM in assay [3]. `COc1cc(Nc2ncnc3cc(I)ccc23)cc(OC)c1OC` [compound 34, 34]: it took 2400 nM to reach half-maximal inhibition in assay [5] (IC50). In turn, `COc1cc(Nc2ncnc3ccc(F)cc23)cc(OC)c1OC` [compound 25, 25] had a 50% inhibitory concentration (IC50) in assay [5] of 3600 nM.

In assay [5], `COc1ccc2c(Nc3cc(OC)c(OC)c(OC)c3)ncnc2c1` [compound 41, 41] had an IC50 of 1600 nM.

`COc1cc(Nc2ncnc3ccc(Br)cc23)cc(OC)c1OC` [compound 28, 28] displayed an IC50 in assay [5] of 1800 nM. Still for that read-out and setting: then `COc1cc(Nc2ncnc3cc(F)ccc23)cc(OC)c1OC` [compound 31, 31], with > 5000 nM. With `C#Cc1cccc(Nc2ncnc3ccc(S(C)(=O)=O)cc23)c1` [compound 69, N-(3-ethynylphenyl)-6-(methylsulfonyl)quinazolin-4-amine], the Ki in assay [6] amounted to 1300 nM; in assay [2], 420 nM; in assay [8] it was 1300 nM. Also, in assay [7], the IC50 was > 5000 nM. In the case of `C#Cc1cccc(Nc2ncnc3cc4c(cc23)OCCO4)c1` [compound 74, 74], the figures for the Ki in assay [6] and in assay [8] were 3600 nM and 1700 nM, respectively. The compound also displayed an IC50 in assay [7] of 3200 nM. Consider `COc1cc(Nc2ncnc3ccc(S(C)(=O)=O)cc23)cc(OC)c1OC` [compound 38, 38], for which the 50% inhibitory concentration (IC50) in assay [5] is > 5000 nM.

Regarding `COc1cc(Nc2ncnc3cc(Cl)ccc23)cc(OC)c1OC` [compound 32, 32], half-maximal inhibition in assay [5] (IC50) was put at 3200 nM. On the same count and under the same terms, next, `COc1cc(Nc2ncnc3cc(F)c(F)cc23)cc(OC)c1OC` [compound 26, 26]: > 5000 nM. Same read-out and setting: then `COCCOc1cc2ncnc(Nc3cc(OC)c(OC)c(OC)c3)c2cc1OCCOC` [compound 42, 42], with 3000 nM. On to `COc1cc(Nc2ncnc3cc(C#N)ccc23)cc(OC)c1OC` [compound 36, 4-((3,4,5-trimethoxyphenyl)amino)quinazoline-7-carbonitrile], for which the Ki in assay [2] was found to be 210 nM. Moreover, the IC50 in assay [5] was > 5000 nM.

For the origin of these results see doi:10.1101/757047v1 (biorxiv, 2019).
